The values that follow come from paper PMC10542788, “Discovery of a cystathionine γ-lyase (CSE) selective inhibitor targeting active-site pyridoxal 5′-phosphate (PLP) via Schiff base formation” (Scientific Reports, 2023).

Holding throughout (format): biochemical
Assay [1] addresses T1, rat CSE (rCSE) (Rattus norvegicus, UniProt P18757).
T1 construct: His-tag (C); made in house; host or cells: E. coli BL21
Description: rCSE inhibition, H2S detection by fluorescence of HSip-1. Here is the method:
The developed assay system employs a plate reader to detect H2S production by CSE as a fluorescence signal in a solution containing 30 μg/mL rat CSE (rCSE), 1 μM HSip-1, 100 μM pyridoxal-5′-phosphate (PLP) and 1.5 mM cysteine (a substrate) in a 384-well plate format (Fig. 1b). A large amount of rCSE was expressed in E. coli and purified on a Ni Sepharose 6 Fast Flow module. We then performed screening of a chemical library consisting of 161,600 compounds (from the Drug Discovery Initiative, the University of Tokyo) for CSE inhibitors (Fig. 1c). […] Then, a confirmation test for repeatability (n = 4) of the 160 compounds selected in the 1st screening was performed to exclude false-positives. In this step, we also excluded cysteine-reactive compounds by changing the addition order of the rCSE and cysteine (substrate) solutions. In other words, in the 1st screening, the enzyme solution was firstly added to each library compound, while in the confirmation test for repeatability of the hit compounds in the 1st screening, we firstly added the cysteine solution to each compound. This enabled us to identify and exclude cysteine-reactive compounds, based on their reaction with the added cysteine. These procedures left 80 compounds showing both more than 40% inhibition at 10 µM and similar % inhibition of rCSE irrespective of the addition order of the rCSE and cysteine solutions. In the 2nd screening, we examined the reactivity of these 80 compounds with H2S using an H2S donor[17] to exclude H2S-reactive compounds. […] In this assay, we selected 13 compounds which were non-reactive to H2S, but one was relatively unstable and two of them were the same compound, so that 11 compounds were finally selected. These compounds included some hydrazine and hydrazide derivatives, so we performed titration assay of the selected 11 compounds together with 9 commercially available hydrazine and hydrazide compounds (Supplementary Fig. S3) and calculated the half-maximal (50%) inhibitory concentration (IC50) of each compound.
The fluorescence intensity of HSip-1 was measured (λex = 490 nm, λem = 510 nm) with a microplate reader (EnVision, Perkin Elmer).
10 µL of 1.5 mM cysteine solution in 30 mM HEPES (pH 7.4) was added to 10 µL of solution containing 30 µg/mL rCSE, 100 µM PLP, 1 µM HSip-1, 0.005% tween 20 and the test compound (0.5% DMSO as a cosolvent). The mixture was incubated at 25 °C for 3 h and the fluorescence intensity of HSip-1 was measured with a microplate reader.

In assay [2] the test system is MGL. Briefly: MGL inhibition, HSip-1 fluorescence. The following applies: 30 µM. Here is the method: The selectivity of 1, 2 and PAG for rCSE over other RSS-producing enzymes, CBS and 3MST, was examined (Fig. 4a). CBS is a PLP-dependent enzyme, like CSE, and produces H2S from cysteine and homocysteine as substrates. 3MST is also an H2S-producing enzyme, but is not PLP-dependent and uses 3-mercaptopyruvate as a substrate. The amount of H2S produced by CBS or 3MST was evaluated in the presence or absence of the inhibitor by measuring the fluorescence intensity of HSip-1. […] We also examined the inhibitory activity towards two other PLP-dependent enzymes, MGL and ALT. MGL metabolizes L-methionine to α-ketobutyric acid, methanethiol and ammonia, and is inhibited by PAG[14]. MGL also produces H2S from homocysteine as a substrate, and this activity of MGL can be measured by fluorescence detection with HSip-1. […] The enzymatic activity of ALT can be assessed by means of a coupled assay using the reduction of pyruvate to L-lactate with lactate dehydrogenase and NADH and measuring the change in absorption of NADH.
10 µL of 200 µM homocysteine in 30 mM HEPES (pH 7.4) was added to 10 µL of a solution containing 20 µg/mL MGL (Sigma-Aldrich), 100 µM PLP, 1 µM HSip-1, 0.005% tween 20 and various concentrations of the inhibitor (0.5% DMSO as a cosolvent). The mixture was incubated at 25 °C for 100 min and the fluorescence intensity of HSip-1 was measured with a microplate reader.

Assay [3] addresses rCSE (Rattus norvegicus, UniProt P18757). Briefly: rCSE inhibition, H2S detection by gas chromatography. The arrangement: His-tag (C); made in house; host or cells: E. coli BL21. Particulars: 1.5 mM cysteine, 100 μM PLP, mean ± S.E., read-out: IC50, inhibition of H2S production by rCSE. Here is the method: Next, in order to further confirm the CSE-inhibitory ability of 1, we employed a gas chromatographic method. A mixture of 30 μg/mL rCSE, 100 μM PLP and 1.5 mM cysteine in 30 mM HEPES buffer (pH 7.4) with or without 1 or PAG was incubated in a sealed glass vial, and the air containing enzymatically produced H2S in the glass vial was analyzed by gas chromatography.
Supplementary Figure S4. (a) H2S production by rCSE in the presence of various concentrations of 1 was measured by gas chromatography. A solution of 30 μg/mL rCSE, 100 μM PLP and 1.5 mM cysteine in 30 mM HEPES buffer (pH 7.4) was incubated at r.t. for 60 min. Error bars represent ±S.D. (n = 4). (b) Inhibitory activity of 1 (mean ± S.E.). H2S was detected by gas chromatography. Error bars represent ± S.D. (n = 4).

T1 sequence (P18757 whole entry): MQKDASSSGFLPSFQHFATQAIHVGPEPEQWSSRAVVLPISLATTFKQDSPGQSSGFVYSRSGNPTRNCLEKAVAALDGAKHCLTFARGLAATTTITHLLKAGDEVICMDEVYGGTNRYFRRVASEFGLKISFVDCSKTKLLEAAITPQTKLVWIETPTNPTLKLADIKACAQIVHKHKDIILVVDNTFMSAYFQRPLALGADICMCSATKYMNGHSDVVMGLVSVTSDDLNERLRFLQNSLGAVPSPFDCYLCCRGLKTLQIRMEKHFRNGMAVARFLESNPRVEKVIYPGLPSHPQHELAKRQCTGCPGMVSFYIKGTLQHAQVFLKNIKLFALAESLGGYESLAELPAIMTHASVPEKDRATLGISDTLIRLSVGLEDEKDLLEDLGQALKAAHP
rCSE, sequence (P18757 whole entry): as above

As a reminder, the IC50 is the midpoint of a concentration-inhibition curve. With `NNC(=O)C(N)=O` [Compound 1, oxamic hydrazide], the IC50 in assay [1] (fluorescence assay with HSip-1, 1.5 mM cysteine, 100 μM PLP, mean ± S.E., read-out: IC50, inhibitory activity towards rCSE) stood at 13 ± 1 µM; in assay [3], 23 ± 6 µM. Moreover, in assay [1] (versus CBS, 3MST, MGL and ALT), the “selectivity for CSE among the compounds examined (1, 2, PAG)” value is “highest selectivity for CSE”. Besides, the “inhibitory activity towards MGL / selectivity for CSE over MGL” value in assay [2] was “high selectivity for CSE over MGL and ALT”.
